Source: patent US5516647A, “Compounds useful as alkaline phosphatase inhibitors and therapeutic agents” (Abbott Laboratories, priority 1993, dated 1996)
Entries after “also recorded” stand apart in the source; their conditions may differ. Where two headings read alike, the source gives them in different places.

Assays:
human bone AP = target: T1, human bone AP (Homo sapiens, UniProt P05186); experiment: Inhibition of human bone AP isoenzyme (p-nitrophenylphosphate hydrolysis); format: biochemical; settings: for order of potency as inhibitors of bone AP: FIG. 4; for IC50: read-out: [I]50 Bone AP: concentration of inhibitor that gives 50% inhibition of enzyme activity; for times more active than levamisole, bone isoenzymes: ratio to levamisole
T1 construct: Human bone AP was isolated from human osteosarcoma-derived cell line, Saos-2; host or cells: Saos-2 (human osteosarcoma-derived cell line, ATCC), butanol extraction
T1 sequence (P05186 18-502 limits assumed): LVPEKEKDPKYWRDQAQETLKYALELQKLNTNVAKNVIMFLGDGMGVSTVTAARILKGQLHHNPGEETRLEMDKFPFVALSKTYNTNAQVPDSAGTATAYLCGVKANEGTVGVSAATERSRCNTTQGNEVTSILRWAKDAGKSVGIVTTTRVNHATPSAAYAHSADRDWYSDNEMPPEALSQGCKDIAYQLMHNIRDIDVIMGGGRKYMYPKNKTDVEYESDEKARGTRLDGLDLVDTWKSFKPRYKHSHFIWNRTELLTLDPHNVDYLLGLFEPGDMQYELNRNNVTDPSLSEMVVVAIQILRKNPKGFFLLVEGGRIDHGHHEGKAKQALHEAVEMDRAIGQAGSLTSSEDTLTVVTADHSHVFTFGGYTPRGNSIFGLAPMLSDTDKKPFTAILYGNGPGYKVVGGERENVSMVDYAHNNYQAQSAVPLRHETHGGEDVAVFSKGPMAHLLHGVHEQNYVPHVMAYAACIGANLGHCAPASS
Procedure: (§1) Human intestinal AP was obtained from Aalto Scientific, Ltd. Vista, Calif. […] L-Phenylalanine was obtained from Aldrich Chemical Company, Milwaukee, Wis. Human bone AP was isolated from human osteosarcoma-derived cell line, Saos-2 (Catalog No. HTB 85, The American Type Culture Collection, 12301 Parklawn Drive, Rockville, Md.) by butanol extraction as described by J. R. Farley et al., (1989) Clin Chem. 35, 223-229.
(§2) AP activity was determined with VP Bichromatic Analyzer (Abbott Laboratories) by monitoring the appearance of the yellow product, p-nitrophenol, produced as a result of the enzyme catalyzed hydrolysis of the colorless substrate, p-nitrophenylphosphate. The stock preparations of E. coli and human AP were diluted to 0.3-1.0 U/ml with 0.1M Tris buffer, pH 8.0, containing 1 mM magnesium chloride, 0.1 mM zinc chloride and 5 mg/ml bovine serum albumin. […] The diluted enzyme solutions were prepared fresh just before the start of the experiments. The final assay conditions for the human and E. coli AP were as follows:
(§3) Human AP Isoenzymes: p-Nitrophenylphosphate (2.2 mmol/liter); Diethanolamine (500 mmol/liter); Magnesium chloride (1 mmol/liter); Zinc chloride (0.1 mmol/liter). The reaction pH was 10.2 at a reaction temperature of 37° C. and volume fraction (sample/total) of 0.033 (1:30).
(§4) The diluted enzymes and inhibitors at appropriate concentrations (as shown in the Figures) were hand pipetted into numbered cuvettes in the multicuvette assembly of the VP Bichromatic Analyzer. Once the assay was started, the analyzer dispensed an appropriate amount of the buffered solution of p-nitrophenylphosphate containing magnesium and zinc chlorides into each cuvette. The multicuvette assembly rotated and allowed measurement of absorbance changes at every two minutes intervals. A 415 nm-450 nm filter was used to assay AP activity. All enzyme activity measurements were done at least in duplicate and the average value was used in the data analyses.
(§5) The I50 value for APl-3 is similarly calculated from its dose response curve.

human placental AP = target: T2, human placental AP (Homo sapiens, UniProt P05187); experiment: Inhibition of human placental AP isoenzyme (p-nitrophenylphosphate hydrolysis); format: biochemical; settings: for inhibition of the placental isoenzymes: FIG. 7, at the concentration compared with E. coli AP; for times more potent than L-phenylalanine, placental isoenzymes: ratio to L-phenylalanine; for times more potent than levamisole, placental isoenzymes: ratio to levamisole
T2 construct: purchased Sigma Chemical Co., St. Louis, Mo
T2 sequence (P05187 23-506 limits assumed): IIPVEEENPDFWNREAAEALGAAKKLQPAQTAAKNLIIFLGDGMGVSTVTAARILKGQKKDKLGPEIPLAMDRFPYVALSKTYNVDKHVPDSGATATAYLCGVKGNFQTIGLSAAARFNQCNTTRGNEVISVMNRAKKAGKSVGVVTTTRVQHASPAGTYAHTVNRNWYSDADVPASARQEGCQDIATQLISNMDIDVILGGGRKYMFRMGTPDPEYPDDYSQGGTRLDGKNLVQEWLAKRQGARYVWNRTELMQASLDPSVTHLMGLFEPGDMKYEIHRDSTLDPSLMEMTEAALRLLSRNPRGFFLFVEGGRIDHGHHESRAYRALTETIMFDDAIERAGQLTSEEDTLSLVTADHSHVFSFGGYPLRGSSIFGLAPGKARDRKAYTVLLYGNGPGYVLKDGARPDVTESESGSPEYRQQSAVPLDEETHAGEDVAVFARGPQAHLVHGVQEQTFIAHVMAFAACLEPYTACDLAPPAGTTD
Procedure: as §1, §2, §3, §4, §5

human intestinal AP = target: T3, human intestinal AP (Homo sapiens, UniProt P09923); experiment: Inhibition of human intestinal AP isoenzyme (p-nitrophenylphosphate hydrolysis); format: biochemical; settings: for effectiveness against intestinal isoenzymes / order of effectiveness, intestinal isoenzymes: FIG. 6; for inhibition of the intestinal isoenzymes: FIG. 7, at the concentration compared with E. coli AP; for times as potent/effective as L-phenylalanine, intestinal isoenzymes: ratio to L-phenylalanine; for times as potent/effective as levamisole, intestinal isoenzymes: ratio to levamisole
T3 construct: purchased Aalto Scientific, Ltd., Vista, Calif
T3 sequence (P09923 20-503 limits assumed): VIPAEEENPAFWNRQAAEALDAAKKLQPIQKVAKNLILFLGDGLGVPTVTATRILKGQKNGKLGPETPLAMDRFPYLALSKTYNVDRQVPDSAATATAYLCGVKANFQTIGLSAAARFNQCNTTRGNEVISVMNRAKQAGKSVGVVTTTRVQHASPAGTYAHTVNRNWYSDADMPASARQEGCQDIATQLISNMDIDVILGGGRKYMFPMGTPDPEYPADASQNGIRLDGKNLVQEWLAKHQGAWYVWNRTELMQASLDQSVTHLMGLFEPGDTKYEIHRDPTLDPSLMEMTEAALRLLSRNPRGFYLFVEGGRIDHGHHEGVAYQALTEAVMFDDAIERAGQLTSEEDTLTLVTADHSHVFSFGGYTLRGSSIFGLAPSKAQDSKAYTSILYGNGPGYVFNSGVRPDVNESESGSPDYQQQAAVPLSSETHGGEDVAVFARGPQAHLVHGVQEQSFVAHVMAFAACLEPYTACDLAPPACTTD
Procedure: as §1, §2, §3, §4, §5

E. coli AP = experiment: Inhibition of (altered) E. coli AP (p-nitrophenylphosphate hydrolysis); format: biochemical; settings: FIG. 7, at the concentration inhibiting human isoenzymes, high concentrations
Procedure: E. coli AP (APKJ3 and APKJ4) were obtained according to the methods disclosed in U.S. patent Ser. No. 08/031,165 and its CIP. APKJ4 is an E. coli AP in which the lysine at its position 177 has been replaced with cysteine.
as §2
E. coli AP: P-Nitrophenylphosphate (1 mmol/liter); Tris-chloride (100 mmol/liter); Magnesium chloride (1 mmol/liter); and Zinc chloride (0.1 mmol/liter). The reaction pH was 8.0 at a reaction temperature of 37° C. and volume fraction (sample/total) of 0.033 (1:30).
as §4

calf intestinal AP = calf intestinal AP (Bos taurus, UniProt P19111); experiment: Inhibition of calf intestinal AP; format: biochemical; settings: for inhibition of calf intestinal AP versus E. coli AP: compared with E. coli AP; for inhibition of calf intestinal AP versus L-phenylalanine and levamisole: compared with L-phenylalanine and levamisole; for inhibition of calf intestinal AP versus human intestinal AP: compared with human intestinal AP
Sequence of calf intestinal AP (P19111 20-506): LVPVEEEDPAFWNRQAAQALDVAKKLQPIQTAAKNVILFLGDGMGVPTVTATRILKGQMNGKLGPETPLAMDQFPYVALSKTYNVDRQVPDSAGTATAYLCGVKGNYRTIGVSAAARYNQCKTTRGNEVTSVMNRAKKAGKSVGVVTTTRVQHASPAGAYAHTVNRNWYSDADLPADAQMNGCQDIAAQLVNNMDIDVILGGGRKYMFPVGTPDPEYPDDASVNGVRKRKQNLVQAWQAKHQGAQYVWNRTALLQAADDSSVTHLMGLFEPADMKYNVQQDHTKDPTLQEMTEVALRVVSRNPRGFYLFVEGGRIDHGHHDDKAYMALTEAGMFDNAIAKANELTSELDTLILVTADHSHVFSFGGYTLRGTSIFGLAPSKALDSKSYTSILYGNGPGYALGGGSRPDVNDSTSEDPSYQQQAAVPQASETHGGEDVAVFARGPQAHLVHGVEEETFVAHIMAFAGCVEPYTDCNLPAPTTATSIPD

human AP = experiment: Selectivity for human AP versus E. coli AP; format: biochemical; settings: FIG. 7
Procedure: as §2, §3
E. coli AP: P-Nitrophenylphosphate (1 mmol/liter); Tris-chloride (100 mmol/liter); Magnesium chloride (1 mmol/liter); and Zinc chloride (0.1 mmol/liter). […]
The diluted enzymes and inhibitors at appropriate concentrations (as shown in the Figures) were hand pipetted into numbered cuvettes in the multicuvette assembly of the VP Bichromatic Analyzer. […] The multicuvette assembly rotated and allowed measurement of absorbance changes at every two minutes intervals. […]

tissue-nonspecific AP = settings: background art; cited from earlier work
[1] = pH 10.2, 37° C., p-nitrophenylphosphate 2.2 mmol/liter, from dose response curves
[2] = pH 10.2, 37° C., p-nitrophenylphosphate 2.2 mmol/liter, from dose response curves, read-out: [I]50 Placental AP: concentration of inhibitor that gives 50% inhibition of enzyme activity
[3] = pH 10.2, 37° C., p-nitrophenylphosphate 2.2 mmol/liter, from dose response curves, read-out: [I]50 Intestinal AP: concentration of inhibitor that gives 50% inhibition of enzyme activity

SMILES | order of potency as inhibitors of bone AP (human bone AP) | IC50 (human bone AP; [1]) | times more active than levamisole, bone isoenzymes (human bone AP) | order of effectiveness, placental isoenzymes (human placental AP; FIG. 5) | inhibition of the placental isoenzymes (human placental AP) | IC50 (human placental AP; [2]) | times more potent than L-phenylalanine, placental isoenzymes (human placental AP) | times more potent than levamisole, placental isoenzymes (human placental AP) | effectiveness against intestinal isoenzymes (human intestinal AP) | order of effectiveness, intestinal isoenzymes (human intestinal AP) | inhibition of the intestinal isoenzymes (human intestinal AP) | IC50 (human intestinal AP; [3]) | times as potent/effective as L-phenylalanine, intestinal isoenzymes (human intestinal AP) | times as potent/effective as levamisole, intestinal isoenzymes (human intestinal AP) | inhibition of the E. coli AP (E. coli AP) | inhibition of calf intestinal AP versus E. coli AP (calf intestinal AP) | inhibition of calf intestinal AP versus L-phenylalanine and levamisole (calf intestinal AP) | selectivity for human AP compared to levamisole (human AP) | further results
c1ccc(Oc2ccc(C3CN4CCSC4=N3)cc2)cc1 (racemic) [API-1, (dl)-2,3,5,6-tetrahydro-6-(4-phenoxyphenyl)-imidazo[2,1-b]-thiazole] | APl-2>APl-1>levamisole | 4 µM | 15 times | APl-2>APl-1>levamisole>L-phenylalanine | 90% | 160 µM | 19 times | 14 times | much more effective inhibitors than levamisole and L-phenylalanine | APl-2>APl-1>L-phenylalanine>levamisole | 50-60% | 1000 µM | 5 times | 12 times | ≤ 10% | inhibited calf intestinal AP more than E. coli AP | more efficient than L-phenylalanine and levamisole at inhibiting calf intestinal AP | much more selective inhibitors of human AP compared to levamisole | inhibition of bone isoenzymes (human bone AP; listed as APl-1): nearly complete inhibition at much lower concentrations compared to levamisole; inhibition of calf intestinal AP versus human intestinal AP (calf intestinal AP; listed as APl-1): more effective in inhibiting human intestinal AP than calf intestinal AP; also recorded: calf intestinal AP is more resistant to inhibition
C1=CN2CC(c3ccc(Oc4ccccc4)cc3)N=C2S1 (racemic) [API-2, (dl)-5,6-dihydro-6-(4-phenoxyphenyl)-imidazo-[1,2-b]-thiazole] | APl-2>APl-1>levamisole | 0.6 µM | 100 times | APl-2>APl-1>levamisole>L-phenylalanine | 90% | 26 µM | 115 times | 85 times | much more effective inhibitors than levamisole and L-phenylalanine | APl-2>APl-1>L-phenylalanine>levamisole | 50-60% | 200 µM | 23 times | 60 times | ≤ 10% | inhibited calf intestinal AP more than E. coli AP | more efficient than L-phenylalanine and levamisole at inhibiting calf intestinal AP | much more selective inhibitors of human AP compared to levamisole | inhibition of bone isoenzymes (human bone AP; listed as APl-2): nearly complete inhibition at much lower concentrations compared to levamisole; times more potent than compound APl-1, placental isoenzymes (human placental AP; ratio to APl-1): about 6 times; times as effective as APl-1, intestinal isoenzymes (human intestinal AP; ratio to APl-1): 5 times; inhibition of calf intestinal AP versus human intestinal AP (calf intestinal AP; listed as APl-2): more effective in inhibiting human intestinal AP than calf intestinal AP; also recorded: calf intestinal AP is more resistant to inhibition
c1ccc(-c2ccc(C3CN4CCSC4=N3)cc2)cc1 (racemic) [API-3, (dl)-2,3,5,6-tetrahydro-6-(biphenyl)-imidazo-[1,2-b]-thiazole] | – | – | – | – | – | 500 µM | – | – | – | – | – | – | – | – | – | – | – | – | –
N[C@@H](Cc1ccccc1)C(=O)O [L--Phe, L-phenylalanine, reference compound] | – | – | – | APl-2>APl-1>levamisole>L-phenylalanine | – | – | – | – | – | APl-2>APl-1>L-phenylalanine>levamisole | – | – | – | – | – | – | – | – | inhibition of bone isoenzymes (human bone AP): does not inhibit bone isoenzymes; also recorded: activation of the bone isoenzymes; [I]50 Bone AP: concentration of inhibitor that gives 50% inhibition of enzyme activity (human bone AP; [1]): Activation; activation at 10000 µM (human bone AP; read-out: increase in activity of bone AP): ≤ 40%; IC50 (human placental AP): 3000 µM; effectiveness against placental isoenzymes (human placental AP; FIG. 5): a lot less effective compared to compounds APl-1 and APl-2; IC50 (human intestinal AP): 4500 µM; sensitivity of tissue-nonspecific AP to inhibitor (tissue-nonspecific AP): not sensitive; also recorded: does not inhibit tissue-nonspecific AP isoenzymes
